# Results as given in PubChem BioAssay (NCI).
#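 Following 48 hours of exposure in 96-well plates, responses at five concentrations were used to interpolate endpoints linearly. GI50 marks 50% less growth. TGI: total growth inhibition.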
# Columns and labels:
# Test in all cases: NCI-60 cell line screen, 48 h
# HCT-15 colon = tested on: HCT-15 colon
# MALME-3M melanoma = tested on: MALME-3M melanoma
# M14 melanoma = tested on: M14 melanoma
# HT29 colon = tested on: HT29 colon
# A498 renal = tested on: A498 renal
# SK-MEL-5 melanoma = tested on: SK-MEL-5 melanoma
# BT-549 breast = tested on: BT-549 breast
# HS 578T breast = tested on: HS 578T breast
# NCI-H226 lung = tested on: NCI-H226 lung
# HCC-2998 colon = tested on: HCC-2998 colon
Structure (SMILES),GI50 (HCT-15 colon),TGI (HCT-15 colon),GI50 (MALME-3M melanoma),TGI (MALME-3M melanoma),GI50 (M14 melanoma),TGI (M14 melanoma),GI50 (HT29 colon),TGI (HT29 colon),GI50 (A498 renal),TGI (A498 renal),GI50 (SK-MEL-5 melanoma),TGI (SK-MEL-5 melanoma),GI50 (BT-549 breast),TGI (BT-549 breast),GI50 (HS 578T breast),TGI (HS 578T breast),GI50 (NCI-H226 lung),TGI (NCI-H226 lung),GI50 (HCC-2998 colon),TGI (HCC-2998 colon)
O=C(Nc1ccc(Br)cc1F)c1cc(Cl)ccc1O,0.972 µM,10.5 µM,0.434 µM,2.67 µM,0.585 µM,3.58 µM,3.09 µM,31.5 µM,0.16 µM,0.604 µM,0.273 µM,0.815 µM,0.44 µM,2.1 µM,0.327 µM,2.81 µM,1.2 µM,4.57 µM,2.79 µM,12.7 µM
O=C(/C=C/c1ccc[nH]1)c1ccc(-n2ccc(C(F)(F)F)n2)cc1,> 100 µM,> 100 µM,> 100 µM,> 100 µM,> 100 µM,> 100 µM,> 100 µM,> 100 µM,> 100 µM,> 100 µM,> 100 µM,> 100 µM,0.425 µM,2.5 µM,> 100 µM,> 100 µM,–,> 100 µM,> 100 µM,> 100 µM
CCOC(=O)Nc1cc2c(c(N)n1)N=C(c1ccccc1)CO2,0.0894 µM,> 100 µM,5.11 µM,36.2 µM,0.166 µM,93 µM,0.047 µM,10.9 µM,0.147 µM,6.92 µM,0.174 µM,5.9 µM,23.1 µM,> 100 µM,0.388 µM,> 69.4 µM,4.16 µM,41.4 µM,0.414 µM,8.96 µM
COC(=O)c1c2c(c(C)[n+]([O-])c1C)C(=O)C=C(NCc1ccc(F)cc1)C2=O,0.341 µM,1.86 µM,0.153 µM,0.389 µM,0.513 µM,1.9 µM,0.369 µM,–,1.26 µM,2.56 µM,0.193 µM,0.405 µM,1.3 µM,2.63 µM,1.93 µM,6.66 µM,1.77 µM,4.13 µM,0.442 µM,1.77 µM
C[C@@H]1C[C@@H]([C@@H](CC2CC(=O)NC(=O)C2)OC(=O)CC(=O)c2ccccc2)C(=O)[C@@H](C)C1,0.809 µM,> 100 µM,0.496 µM,13.6 µM,0.588 µM,> 49.1 µM,0.634 µM,> 100 µM,0.177 µM,2.36 µM,0.661 µM,> 100 µM,2.32 µM,66.7 µM,0.604 µM,10.9 µM,0.686 µM,> 100 µM,0.373 µM,> 26.5 µM
Cc1nnc(Nc2ccc(NC(=O)Nc3ccc(Cl)cc3)cc2)c2ccccc12,1.91 µM,4.53 µM,2.17 µM,4.79 µM,1.76 µM,3.57 µM,1.78 µM,3.67 µM,3.21 µM,10.5 µM,1.85 µM,3.5 µM,2.21 µM,5.56 µM,2.52 µM,6.4 µM,3.61 µM,15.9 µM,2.84 µM,8.09 µM
O=C(Cc1ccc(F)c(Cl)c1)Nc1cc(C2(C(F)(F)F)CC2)nn1CC1CCCCC1,3.87 µM,> 15 µM,2.7 µM,8.06 µM,4.3 µM,> 15 µM,3.96 µM,> 15 µM,1.52 µM,4.89 µM,2.61 µM,4.88 µM,3.41 µM,14.7 µM,2.13 µM,9.45 µM,4.32 µM,> 15 µM,4.45 µM,> 15 µM
O=C(c1ccco1)c1c(C(F)(F)F)nc2ccc(Cl)cc2[n+]1[O-],61 µM,> 100 µM,> 100 µM,> 100 µM,> 100 µM,> 100 µM,> 100 µM,> 100 µM,23.1 µM,68 µM,17.5 µM,31.6 µM,> 100 µM,> 100 µM,19.8 µM,51.4 µM,> 100 µM,> 100 µM,21.8 µM,46.1 µM
N#Cc1nn(-c2cc(=O)[nH]c3ccc(Cl)cc23)c(N)c1C#N,> 100 µM,> 100 µM,> 100 µM,> 100 µM,> 100 µM,> 100 µM,> 100 µM,> 100 µM,> 100 µM,> 100 µM,> 100 µM,> 100 µM,> 100 µM,> 100 µM,> 100 µM,> 100 µM,> 100 µM,> 100 µM,> 100 µM,> 100 µM
